Measurements reported in ChEMBL document CHEMBL5131517 (ACS Med Chem Lett, 2022).

Tests used:
[1] = target: T1, 5-hydroxytryptamine receptor 2C (Homo sapiens) (UniProt P28335); experiment: Agonist activity at human 5HT2C receptor stably expressed in Flp-In-T-REx-293 cells assessed as maximal Gq-mediated calcium flux by Fluo-4 direct dye based FLIPR Tetra assay relative to control; format: functional, cell-based
T1 sequence (whole entry): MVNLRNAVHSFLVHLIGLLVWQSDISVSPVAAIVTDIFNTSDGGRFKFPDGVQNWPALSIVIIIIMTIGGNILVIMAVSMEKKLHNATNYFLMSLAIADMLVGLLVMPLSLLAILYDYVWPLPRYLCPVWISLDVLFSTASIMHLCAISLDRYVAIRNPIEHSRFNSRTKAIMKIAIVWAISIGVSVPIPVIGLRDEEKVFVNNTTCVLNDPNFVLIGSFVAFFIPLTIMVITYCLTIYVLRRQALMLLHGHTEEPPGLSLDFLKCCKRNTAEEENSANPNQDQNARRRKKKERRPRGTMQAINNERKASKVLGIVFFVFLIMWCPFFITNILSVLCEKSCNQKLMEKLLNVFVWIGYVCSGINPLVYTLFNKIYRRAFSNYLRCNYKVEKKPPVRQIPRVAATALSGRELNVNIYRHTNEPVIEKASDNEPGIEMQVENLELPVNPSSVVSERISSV

[2] = target: T2, 5-hydroxytryptamine receptor 2A (Homo sapiens, UniProt P28223); experiment: Agonist activity at human 5HT2A receptor stably expressed in Flp-In-T-REx-293 cells assessed as increase in Gq-mediated calcium flux by Fluo-4 direct dye based FLIPR Tetra assay; format: functional, cell-based
[3] = target: T3, 5-hydroxytryptamine receptor 2B (Homo sapiens, UniProt P41595); experiment: Agonist activity at human 5HT2B receptor stably expressed in Flp-In-T-REx-293 cells assessed as increase in Gq-mediated calcium flux by Fluo-4 direct dye based FLIPR Tetra assay; format: functional, cell-based; conditions: read-out: EC50
[4] = target: T4, 5-hydroxytryptamine receptor 2C (Homo sapiens, UniProt P28335); experiment: Agonist activity at human 5HT2C receptor stably expressed in Flp-In-T-REx-293 cells assessed as increase in Gq-mediated calcium flux by Fluo-4 direct dye based FLIPR Tetra assay; format: functional, cell-based
T4 sequence (P28335 whole entry): T1 sequence (whole entry)

[5] = target: T3, 5-hydroxytryptamine receptor 2B; experiment: Agonist activity at human 5HT2B receptor stably expressed in Flp-In-T-REx-293 cells assessed as maximal Gq-mediated calcium flux by Fluo-4 direct dye based FLIPR Tetra assay relative to control; format: functional, cell-based
[6] = target: T2, 5-hydroxytryptamine receptor 2A; experiment: Agonist activity at human 5HT2A receptor stably expressed in Flp-In-T-REx-293 cells assessed as maximal Gq-mediated calcium flux by Fluo-4 direct dye based FLIPR Tetra assay relative to control; format: functional, cell-based
[7] = Drug metabolism in BALB/c mouse liver microsome S9 fraction assessed as [M+16] metabolite formation prewarmed for 5 mins followed by NADPH addition measured over 1 hrs by LCMS analysis; format: ADME; conditions: microsomes, 1.083 h, time 65 min

T3 sequence (P41595 whole entry): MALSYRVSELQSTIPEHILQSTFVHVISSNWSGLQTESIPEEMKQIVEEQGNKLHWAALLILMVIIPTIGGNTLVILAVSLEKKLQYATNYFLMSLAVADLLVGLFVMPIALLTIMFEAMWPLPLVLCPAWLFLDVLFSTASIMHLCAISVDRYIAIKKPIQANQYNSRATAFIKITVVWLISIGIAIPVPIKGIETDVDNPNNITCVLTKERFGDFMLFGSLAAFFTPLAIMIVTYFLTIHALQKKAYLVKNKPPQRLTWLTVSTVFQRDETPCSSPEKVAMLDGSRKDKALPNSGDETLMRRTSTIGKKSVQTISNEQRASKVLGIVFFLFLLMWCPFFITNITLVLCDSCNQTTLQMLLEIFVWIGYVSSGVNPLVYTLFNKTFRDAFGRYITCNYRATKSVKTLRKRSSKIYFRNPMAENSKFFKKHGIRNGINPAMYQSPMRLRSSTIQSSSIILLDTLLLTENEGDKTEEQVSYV
T2 sequence (P28223 whole entry): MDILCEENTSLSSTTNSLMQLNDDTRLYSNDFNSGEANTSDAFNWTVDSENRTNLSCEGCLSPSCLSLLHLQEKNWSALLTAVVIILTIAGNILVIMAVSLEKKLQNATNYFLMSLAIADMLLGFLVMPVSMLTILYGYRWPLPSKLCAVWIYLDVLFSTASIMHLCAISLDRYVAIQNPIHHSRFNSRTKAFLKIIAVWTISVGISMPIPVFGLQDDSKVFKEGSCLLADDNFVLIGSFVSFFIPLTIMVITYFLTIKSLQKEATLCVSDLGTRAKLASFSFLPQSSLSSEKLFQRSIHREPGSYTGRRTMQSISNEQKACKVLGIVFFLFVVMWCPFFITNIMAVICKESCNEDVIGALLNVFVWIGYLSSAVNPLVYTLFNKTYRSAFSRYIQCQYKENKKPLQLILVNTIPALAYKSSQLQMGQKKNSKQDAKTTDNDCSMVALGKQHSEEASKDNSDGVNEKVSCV

| Emax ([1]; filed as agonist) [%] | EC50 [2] [nM] | EC50 [3] [nM] | EC50 ([4]; read-out: EC50) [nM] | Emax ([5]; filed as agonist) [%] | Emax ([6]; filed as agonist) [%] | Emax [5] [%] | Emax [6] [%] | EC50 ([4]; read-out: pEC50 (converted)) [nM] | Emax [1] [%] | Drug metabolism [7] | Compound |
| --- | --- | --- | --- | --- | --- | --- | --- | --- | --- | --- | --- |
| 107 | 229 | 128 | 209 | 105 | 73.2 |  |  |  |  |  | Oc1cc(Cl)ccc1C1NCCc2c1[nH]c1ccc(F)cc21 (configuration not stated) |
|  |  | 4270 |  | 106 |  |  |  |  |  |  | Cc1ccc(O)c(C2NCCc3c2[nH]c2ccc(Cl)cc32)c1 (configuration not stated) |
| 107 | 537 | 204 | 794 | 106 | 94.5 |  |  |  |  |  | Oc1cc(Br)ccc1C1NCCc2c1[nH]c1ccc(Cl)cc21 (configuration not stated) |
| 111 | 147 | 59 | 95 | 112 | 98 |  |  |  |  |  | Oc1cc(Br)ccc1C1NCCc2c1[nH]c1ccc(F)cc21 (configuration not stated) |
| 99.2 | 562 | 977 | 407 | 89.4 | 69.8 |  |  |  |  |  | Cc1ccc(C2NCCc3c2[nH]c2ccc(Cl)cc32)c(C)c1 (configuration not stated) |
| 99.3 | 81 | 34 | 123 | 102 | 96 |  |  |  |  |  | COc1ccc(C2NCCc3c2[nH]c2ccc(Cl)cc32)cc1OC (configuration not stated) |
| 103 | 254 | 102 | 152 | 89.8 | 83.2 |  |  |  |  |  | COc1ccc(C2NCCc3c2[nH]c2ccc(F)cc32)cc1OC (configuration not stated) |
| 102 | 52 | 25 | 47 | 109 | 98.5 |  |  |  |  |  | Oc1cc(Cl)ccc1C1NCCc2c1[nH]c1ccc(Cl)cc21 (configuration not stated) |
| 99.2 | 273 | 88 | 78 | 96.2 | 65.3 |  |  |  |  |  | Oc1c(Cl)cccc1C1NCCc2c1[nH]c1ccc(F)cc21 (configuration not stated) |
| 95.2 | 812 | 457 | 1320 | 111 | 79.7 |  |  |  |  |  | Oc1ccc(Br)cc1C1NCCc2c1[nH]c1ccc(Cl)cc21 (configuration not stated) |
| 42.4 | 1820 | 416 | 2690 |  |  | 32 | 14.4 |  |  |  | COc1ccc(OC)c(C2NCCc3c2[nH]c2ccc(Cl)cc32)c1 (configuration not stated) |
| 58.9 | > 10000 | 2000 | 3560 | 111 |  |  |  |  |  |  | Oc1ccc(Cl)cc1C1NCCc2c1[nH]c1ccc(Cl)cc21 (configuration not stated) |
| 120 | 72 | 25 | 42 | 102 | 95.2 |  |  |  |  |  | Oc1ccc(O)c(C2NCCc3c2[nH]c2ccc(F)cc32)c1 (configuration not stated) |
| 101 | 1110 | 338 | 376 | 111 | 80.8 |  |  |  |  |  | Oc1ccc(Br)cc1C1NCCc2c1[nH]c1ccc(F)cc21 (configuration not stated) |
| 100 | 167 | 98 | 159 | 91.3 | 45.6 |  |  |  |  |  | COc1ccc(C2NCCc3c2[nH]c2ccc(F)cc32)c(OC)c1 (configuration not stated) |
| 100 | 288 |  | 481 |  | 59.2 |  |  |  |  |  | Oc1ccc2[nH]c3c(c2c1)CCNC3Cc1ccccc1 (configuration not stated) |
| 102 | 1.5 |  | 1.9 |  | 91.2 |  |  |  |  |  | Oc1ccc(C2NCCc3c2[nH]c2ccc(Cl)cc32)c(O)c1 (configuration not stated) |
| 109 | 12.8 |  | 12.6 |  | 95.3 |  |  |  |  |  | Clc1ccc2[nH]c3c(c2c1)CCNC3c1ccccc1Cl (configuration not stated) |
| 83.3 | 800 |  |  |  | 89.3 |  |  | 2950 |  |  | Oc1ccc2[nH]c3c(c2c1)CCNC3c1cncnc1 (configuration not stated) |

| Emax ([1]; filed as agonist) [%] | EC50 [2] [nM] | EC50 [3] [nM] | EC50 ([4]; read-out: EC50) [nM] | Emax ([5]; filed as agonist) [%] | Emax ([6]; filed as agonist) [%] | Emax [5] [%] | Emax [6] [%] | EC50 ([4]; read-out: pEC50 (converted)) [nM] | Emax [1] [%] | Drug metabolism [7] | Compound |
| --- | --- | --- | --- | --- | --- | --- | --- | --- | --- | --- | --- |
| 118 | 776 |  | 173 |  | 97.1 |  |  |  |  |  | Cc1cc(C2NCCc3c2[nH]c2ccc(Cl)cc32)sc1Br (configuration not stated) |
| 76.3 | 2820 |  | 3390 |  |  |  | 30.5 |  |  |  | COc1ccc2cc(C3NCCc4c3[nH]c3ccc(F)cc43)ccc2c1 (configuration not stated) |
| 99.2 | 1230 | 316 | 446 | 115 |  |  | 36.8 |  |  |  | Cc1ccc(O)c(C2NCCc3c2[nH]c2ccc(F)cc32)c1 (configuration not stated) |
| 114 | 160 |  | 306 |  |  |  | 39.9 |  |  |  | Cc1cccc(C2NCCc3c2[nH]c2ccc(F)cc32)c1 (configuration not stated) |
|  | 849 |  | 2810 |  | 57.1 |  |  |  | 27.3 |  | Clc1ccc2[nH]c3c(c2c1)CCNC3c1ccncc1Cl (configuration not stated) |
|  |  |  |  |  |  |  |  |  |  | Metabolite_Detected | RAUWOLFIA SERPENTINA |
| 82.9 | 207 |  | 284 |  | 41.6 |  |  |  |  |  | COc1ccccc1C1NCCc2c1[nH]c1ccc(Cl)cc21 (configuration not stated) |
| 99.1 | 244 |  | 191 |  | 60.9 |  |  |  |  |  | Cc1cccc(C2NCCc3c2[nH]c2ccc(O)cc32)c1 (configuration not stated) |
| 102 | 409 |  | 147 |  |  |  | 36.4 |  |  |  | Fc1ccc2[nH]c3c(c2c1)CCNC3c1cccs1 (configuration not stated) |
| 100 | 120 |  | 76.4 |  | 100 |  |  |  |  |  | Oc1ccc2[nH]c3c(c2c1)CCNC3c1ccccc1C(F)(F)F (configuration not stated) |
| 104 | 363 | 537 | 159 | 107 | 47.8 |  |  |  |  |  | Cc1ccc(C2NCCc3c2[nH]c2ccc(F)cc32)c(C)c1 (configuration not stated) |
| 97.2 | 303 |  | 62.5 |  | 94.1 |  |  |  |  |  | Cc1ccc(C2NCCc3c2[nH]c2ccc(Cl)cc32)cc1 (configuration not stated) |
| 94 | 336 | 106 | 176 | 95.9 | 70.1 |  |  |  |  |  | Oc1c(Cl)cccc1C1NCCc2c1[nH]c1ccc(Cl)cc21 (configuration not stated) |
| 42.3 | 354 |  | 891 |  |  |  | 34.1 |  |  |  | Fc1ccc2[nH]c3c(c2c1)CCNC3C1CCOCC1 (configuration not stated) |
| 99.4 | 159 |  | 152 |  | 80 |  |  |  |  |  | Oc1ccc(C2NCCc3c2[nH]c2ccc(O)cc32)cc1 (configuration not stated) |
| 103 | 1910 |  | 954 |  | 92.5 |  |  |  |  |  | Fc1ccc2[nH]c3c(c2c1)CCNC3C(c1ccccc1)c1ccccc1 (configuration not stated) |
| 89.1 | 481 |  | 256 |  | 63.1 |  |  |  |  |  | Cc1cccc(C2NCCc3c2[nH]c2ccc(Cl)cc32)c1 (configuration not stated) |
| 55.3 | > 10000 | 588 | 1600 | 52.1 |  |  |  |  |  |  | COc1ccc(OC)c(C2NCCc3c2[nH]c2ccc(F)cc32)c1 (configuration not stated) |
